In patent publication US10125098B2, “Therapeutic compounds and methods of use thereof” (GENENTECH, INC., priority 2014, dated 2018):
Where two headings read alike, the source gives them in different places.

What was measured:
hNav1.7 = molecular target: T1, hNav1.7 (Homo sapiens, UniProt Q15858); assay: Tritiated compound binding (LBA) to membranes from cells expressing hNav1.7 and the β1 subunit, competitive binding; conditions: competitive binding vs 100 pM [3H]compound, 18 h, room temperature, membranes with hNav1.7 and β1 subunit
T1 construct: expressed in transfected cells
T1 sequence (Q15858 1-1977 isoform Q15858-3): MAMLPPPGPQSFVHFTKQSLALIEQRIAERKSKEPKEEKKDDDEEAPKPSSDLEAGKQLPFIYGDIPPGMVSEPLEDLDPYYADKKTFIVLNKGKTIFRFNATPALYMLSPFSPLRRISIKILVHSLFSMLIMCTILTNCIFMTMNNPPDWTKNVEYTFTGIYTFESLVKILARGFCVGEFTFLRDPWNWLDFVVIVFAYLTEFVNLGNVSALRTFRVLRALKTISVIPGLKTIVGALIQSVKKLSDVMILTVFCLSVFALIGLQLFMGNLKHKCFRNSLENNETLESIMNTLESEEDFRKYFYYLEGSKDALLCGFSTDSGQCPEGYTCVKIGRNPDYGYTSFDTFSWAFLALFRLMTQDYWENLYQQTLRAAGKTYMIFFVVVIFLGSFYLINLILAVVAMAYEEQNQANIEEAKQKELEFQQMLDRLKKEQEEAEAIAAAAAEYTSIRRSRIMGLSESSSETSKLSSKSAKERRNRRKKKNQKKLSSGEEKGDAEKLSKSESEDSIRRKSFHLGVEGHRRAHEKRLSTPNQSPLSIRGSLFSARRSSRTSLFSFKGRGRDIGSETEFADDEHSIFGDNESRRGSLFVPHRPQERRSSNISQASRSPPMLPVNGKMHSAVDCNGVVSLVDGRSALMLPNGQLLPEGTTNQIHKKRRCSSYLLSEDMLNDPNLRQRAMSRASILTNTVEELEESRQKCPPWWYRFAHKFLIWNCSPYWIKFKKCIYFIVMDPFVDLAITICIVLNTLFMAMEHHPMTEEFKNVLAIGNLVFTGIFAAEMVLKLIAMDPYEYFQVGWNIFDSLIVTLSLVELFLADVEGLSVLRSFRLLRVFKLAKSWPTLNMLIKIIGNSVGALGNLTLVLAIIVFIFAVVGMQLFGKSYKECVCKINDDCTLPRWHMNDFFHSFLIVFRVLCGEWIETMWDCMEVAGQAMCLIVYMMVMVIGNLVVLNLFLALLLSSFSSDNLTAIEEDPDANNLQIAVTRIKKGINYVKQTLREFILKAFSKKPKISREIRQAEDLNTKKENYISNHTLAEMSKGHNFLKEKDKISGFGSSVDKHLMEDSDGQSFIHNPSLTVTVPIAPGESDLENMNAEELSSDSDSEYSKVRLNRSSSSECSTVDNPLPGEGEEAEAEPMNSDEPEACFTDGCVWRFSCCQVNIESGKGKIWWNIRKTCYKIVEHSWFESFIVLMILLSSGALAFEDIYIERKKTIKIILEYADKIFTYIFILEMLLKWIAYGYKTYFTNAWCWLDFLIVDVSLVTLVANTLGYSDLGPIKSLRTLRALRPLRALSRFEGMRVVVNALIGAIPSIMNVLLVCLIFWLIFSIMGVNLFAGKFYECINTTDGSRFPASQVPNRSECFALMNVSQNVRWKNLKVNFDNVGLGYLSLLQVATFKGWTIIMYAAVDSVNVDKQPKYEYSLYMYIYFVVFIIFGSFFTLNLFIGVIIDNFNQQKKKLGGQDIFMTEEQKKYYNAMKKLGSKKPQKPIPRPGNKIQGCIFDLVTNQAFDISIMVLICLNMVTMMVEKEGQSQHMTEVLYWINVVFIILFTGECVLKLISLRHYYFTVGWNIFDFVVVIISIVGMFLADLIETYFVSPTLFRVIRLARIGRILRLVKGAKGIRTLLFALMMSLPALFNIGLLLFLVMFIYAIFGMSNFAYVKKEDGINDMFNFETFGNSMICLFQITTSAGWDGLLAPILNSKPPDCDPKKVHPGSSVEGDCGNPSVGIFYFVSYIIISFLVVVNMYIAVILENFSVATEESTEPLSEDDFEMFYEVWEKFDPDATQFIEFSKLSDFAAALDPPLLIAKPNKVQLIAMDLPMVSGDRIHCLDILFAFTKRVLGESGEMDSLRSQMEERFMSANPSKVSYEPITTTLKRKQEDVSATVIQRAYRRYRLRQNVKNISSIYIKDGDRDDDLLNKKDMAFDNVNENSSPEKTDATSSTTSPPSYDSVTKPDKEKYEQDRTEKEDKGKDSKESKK
T1 sequence (Q07699 19-218 partner): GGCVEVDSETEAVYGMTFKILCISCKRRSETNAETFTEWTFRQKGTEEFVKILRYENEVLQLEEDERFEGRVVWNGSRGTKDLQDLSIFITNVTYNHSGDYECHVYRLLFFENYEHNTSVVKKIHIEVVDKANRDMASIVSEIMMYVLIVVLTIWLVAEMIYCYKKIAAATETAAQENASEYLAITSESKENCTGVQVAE
Summary of the method: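 Membranes from cells expressing hNav1.7 with β1 were incubated 18 h at room temperature with 100 pM tritiated formula (I) compound and increasing test compound, in 100 mM NaCl, 20 mM Tris HCl pH 7.4, 0.01% BSA.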

human NaV1.7 = molecular target: T2, human NaV1.7 (Homo sapiens, UniProt Q15858); assay: Patch voltage clamp electrophysiology assay (EP), NaV1.7; format: cell-based; conditions: HEK-293 cells stably expressing NaV1.7 with β1 subunit; whole-cell patch clamp, membrane potential −60 mV (inactivated state)
T2 construct: permanently transfected with an expression vector containing the full-length cDNA coding for the desired human sodium channel α-subunit; expressed in transfected cells; host or cells: HEK-293
T2 sequence (Q15858 1-1977 isoform Q15858-3): as the sequence (Q15858 1-1977 isoform Q15858-3) above
T2 sequence (Q07699 19-218 partner): as the sequence (Q07699 19-218 partner) above
Summary of the method: (§1)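 HEK-293 cells stably expressing human α-subunit with β1; whole-cell patch clamp (PatchXpress or manual), ambient temperature, pH 7.4 external NaCl, CsF internal. Held at −60 mV (full inactivation), stepped to −150 mV for 20 ms, then test pulse; percent current decrease after compound wash-on taken as block.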

NaV1.5 = molecular target: T3, NaV1.5 (Homo sapiens, UniProt Q14524); assay: Patch voltage clamp electrophysiology assay (EP), NaV1.5; format: cell-based; conditions: HEK-293 cells stably expressing NaV1.5 with β1 subunit, whole-cell patch clamp, membrane potential −60 mV (inactivated state)
T3 construct: permanently transfected with an expression vector containing the full-length cDNA coding for the desired human sodium channel α-subunit; expressed in transfected cells; host or cells: HEK-293
T3 sequence (Q14524 whole entry): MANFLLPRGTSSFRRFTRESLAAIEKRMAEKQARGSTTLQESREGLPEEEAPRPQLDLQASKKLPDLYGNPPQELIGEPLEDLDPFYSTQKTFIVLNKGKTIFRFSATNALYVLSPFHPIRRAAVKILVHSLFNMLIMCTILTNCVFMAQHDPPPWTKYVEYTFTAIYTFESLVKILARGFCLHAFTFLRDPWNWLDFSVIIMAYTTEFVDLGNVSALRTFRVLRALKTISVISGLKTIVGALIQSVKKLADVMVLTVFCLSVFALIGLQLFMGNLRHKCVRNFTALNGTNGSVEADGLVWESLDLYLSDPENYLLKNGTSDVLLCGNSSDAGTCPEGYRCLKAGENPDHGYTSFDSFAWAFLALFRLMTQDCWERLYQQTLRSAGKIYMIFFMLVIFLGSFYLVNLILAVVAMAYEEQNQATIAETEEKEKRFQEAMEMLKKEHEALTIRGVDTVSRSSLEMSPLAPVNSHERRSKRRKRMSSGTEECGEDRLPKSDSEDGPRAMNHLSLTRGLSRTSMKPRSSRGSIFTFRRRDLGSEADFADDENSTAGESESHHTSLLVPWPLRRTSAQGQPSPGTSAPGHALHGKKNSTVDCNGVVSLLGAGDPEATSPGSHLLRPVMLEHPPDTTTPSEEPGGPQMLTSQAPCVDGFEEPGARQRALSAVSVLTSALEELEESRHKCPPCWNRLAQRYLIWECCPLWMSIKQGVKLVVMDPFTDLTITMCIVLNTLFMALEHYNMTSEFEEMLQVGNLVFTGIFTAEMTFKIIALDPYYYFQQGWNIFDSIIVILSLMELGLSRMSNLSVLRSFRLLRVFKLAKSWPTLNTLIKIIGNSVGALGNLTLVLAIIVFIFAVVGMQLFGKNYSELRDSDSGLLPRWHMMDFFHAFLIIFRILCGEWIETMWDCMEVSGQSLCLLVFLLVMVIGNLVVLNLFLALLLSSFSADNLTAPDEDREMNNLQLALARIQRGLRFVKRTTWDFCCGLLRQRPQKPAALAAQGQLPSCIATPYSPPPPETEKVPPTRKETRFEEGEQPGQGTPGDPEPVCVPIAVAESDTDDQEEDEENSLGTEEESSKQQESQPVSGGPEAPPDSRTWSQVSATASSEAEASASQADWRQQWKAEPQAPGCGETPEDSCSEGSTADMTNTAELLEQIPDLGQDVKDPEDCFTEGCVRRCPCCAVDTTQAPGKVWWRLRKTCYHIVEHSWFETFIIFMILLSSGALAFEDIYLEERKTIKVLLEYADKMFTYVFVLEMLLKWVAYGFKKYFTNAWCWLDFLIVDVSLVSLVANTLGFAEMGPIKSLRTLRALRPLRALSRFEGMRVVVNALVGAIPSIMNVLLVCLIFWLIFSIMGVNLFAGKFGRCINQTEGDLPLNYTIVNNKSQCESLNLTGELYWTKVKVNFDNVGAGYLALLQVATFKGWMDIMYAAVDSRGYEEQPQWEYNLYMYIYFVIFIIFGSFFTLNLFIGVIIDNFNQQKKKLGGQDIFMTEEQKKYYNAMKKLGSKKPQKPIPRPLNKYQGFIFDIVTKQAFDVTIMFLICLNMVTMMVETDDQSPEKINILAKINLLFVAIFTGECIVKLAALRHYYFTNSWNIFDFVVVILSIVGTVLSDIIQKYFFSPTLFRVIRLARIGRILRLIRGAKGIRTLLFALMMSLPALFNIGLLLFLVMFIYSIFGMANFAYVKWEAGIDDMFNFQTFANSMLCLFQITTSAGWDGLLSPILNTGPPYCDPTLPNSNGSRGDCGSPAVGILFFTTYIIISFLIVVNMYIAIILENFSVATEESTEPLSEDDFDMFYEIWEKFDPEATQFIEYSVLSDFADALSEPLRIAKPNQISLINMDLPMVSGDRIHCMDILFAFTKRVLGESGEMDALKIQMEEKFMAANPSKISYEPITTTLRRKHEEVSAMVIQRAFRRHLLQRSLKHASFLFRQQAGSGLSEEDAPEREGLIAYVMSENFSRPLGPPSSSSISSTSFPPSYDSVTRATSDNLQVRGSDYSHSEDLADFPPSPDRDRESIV
Summary of the method: as §1

[1] = human, HEK-293 cells stably expressing human NaV1.5 with β1 subunit, pH 7.4

Row | IC50 (hNav1.7) [nM] | IC50 (human NaV1.7) [nM] | SMILES | IC50 (NaV1.5; [1]) [nM] | IC50 (NaV1.5; read-out: Nav1.5) [nM]
1 | 160 | 830 | O=C(O)[C@@H]1C[C@@H](F)CN1C(=O)c1cc(C2CC2)c(OCC2CCN(Cc3noc(-c4ccccc4Cl)n3)CC2)cc1F [Example 220, (2S, 4R)-1-(4-((1-((5-(2-chlorophenyl)-1,2,4-oxadiazol-3-yl)methyl)piperidin-4-yl)methoxy)-5-cyclopropyl-2-fluorobenzoyl)-4-fluoropyrrolidine-2-carboxylic acid] | ≥ 30000 | 
2 | 21 | 160 | O=C(O)[C@@H]1C[C@@H](F)CN1C(=O)c1cc(C2CC2)c(OCC2CCN([C@@H](c3cc(Cl)cc(Cl)c3)C(F)(F)F)CC2)cc1F (single isomer, unassigned) [Example 140b] |  | 3700
3 | 170 | 980 | O=C(O)[C@@H]1[C@H](F)CCN1C(=O)c1cc(C2CC2)c(OCC23CC4CC(CC(C4)C2)C3)cc1F [Example 63, (2R, 3R)-1-(4-((adamantan-1-yl)methoxy)-5-cyclopropyl-2-fluorobenzoyl)-3-fluoropyrrolidine-2-carboxylic acid] |  | 18000
4 | 87 | 710 | O=C(O)[C@@H]1C[C@@H](F)CN1C(=O)c1cc(C2CC2)c(OCC2(F)CCN(Cc3ccc(F)c(Cl)c3)CC2)cc1F [Example 128, (2S,4R)-1-(4-((1-(3-chloro-4-fluorobenzyl)-4-fluoropiperidin-4-yl)methoxy)-5-cyclopropyl-2-fluorobenzoyl)-4-fluoropyrrolidine-2-carboxylic acid] | ≥ 30000 | 
5 | 100 | 920 | C[C@@]1(C(=O)O)CCCN1C(=O)c1cc(C2CC2)c(OCC23CC4CC(CC(C4)C2)C3)cc1F [Example 51, (S)-1-(4-((adamantan-1-yl)methoxy)-5-cyclopropyl-2-fluorobenzoyl)-2-methylpyrrolidine-2-carboxylic acid] |  | 14000
6 | 30 | 340 | O=C(O)[C@H]1CSCN1C(=O)c1cc(C2CC2)c(OCC23CC4CC(CC(C4)C2)C3)cc1F [Example 50, (4S)-3-[4-(1-adamantylmethoxy)-5-cyclopropyl-2-fluoro-benzoyl]thiazolidine-4-carboxylic acid] |  | 19400
7 | 58 | 780 | CC1(C)CCN(C(=O)c2cc(C3CC3)c(OCC34CC5CC(CC(C5)C3)C4)cc2F)C1C(=O)O (stereo in doubt) [Example 151, (2R)-1-[4-(1-adamantylmethoxy)-5-cyclopropyl-2-fluoro-benzoyl]-3,3-dimethyl-pyrrolidine-2-carboxylic acid] |  | 5200
8 | 490 | 6100 | O=C(O)[C@@H]1CCCN1C(=O)c1cc(C2CC2)c(OC2CN(C(c3ccccc3)c3ccccc3)C2)cc1F [Example 141, (S)-1-(4-(1-benzhydrylazetidin-3-yloxy)-5-cyclopropyl-2-fluorobenzoyl)pyrrolidine-2-carboxylic acid] | ≥ 30000 | 
9 | 6100 | 11000 | O=C(O)[C@@H]1CCCN1C(=O)c1cc(F)c(OCC23CC4CC(CC(C4)C2)C3)cc1F [Example 71, (4-(adamantan-1-ylmethoxy)-2,5-difluorobenzoyl)-L-proline] | ≥ 30000 | 
10 | 110 | 1100 | C[C@@]1(COc2cc(F)c(C(=O)N3CCC[C@H]3C(=O)O)cc2C2CC2)CCN(c2cc(C(F)(F)F)c(Cl)cn2)C1 [Example 136, (S)-1-(4-(((R)-1-(5-chloro-4-(trifluoromethyl)pyridin-2-yl)-3-methylpyrrolidin-3-yl)methoxy)-5-cyclopropyl-2-fluorobenzoyl)pyrrolidine-2-carboxylic acid] | ≥ 30000 | 
11 | 58 | 620 | O=C(c1cc(C2CC2)c(OCC23CC4CC(CC(C4)C2)C3)cc1F)N1CCC[C@H]1c1nnn[nH]1 [Example 54, ((S)-2-(1H-tetrazol-5-yl)pyrrolidin-1-yl)(4-(adamantan-1-ylmethoxy)-5-cyclopropyl-2-fluorophenyl)methanone] |  | 9700
12 | 70 | 800 | CC(C)[C@H](NC(=O)c1cc(C2CC2)c(OCC23CC4CC(CC(C4)C2)C3)cc1F)C(=O)O [Example 66, (S)-2-(4-(adamantan-1-ylmethoxy)-5-cyclopropyl-2-fluorobenzamido)-3-methylbutanoic acid] |  | 8100
13 | 480 | 2000 | O=C(O)[C@@H]1CCCCN1C(=O)c1cc(C2CC2)c(OCC23CC4CC(CC(C4)C2)C3)cc1F [Example 83, (S)-1-(4-(adamantan-1-ylmethoxy)-5-cyclopropyl-2-fluorobenzoyl)piperidine-2-carboxylic acid] |  | 14000
14 | 170 | 520 | O=C(O)[C@@H]1CCCN1C(=O)c1cc(C2CC2)c(OCC23CCCCC2C3)cc1F (stereo partly drawn) [Example 69, (4-(bicyclo[4.1.0]heptan-1-ylmethoxy)-5-cyclopropyl-2-fluorobenzoyl)-L-proline] | ≥ 30000 | 
15 | 12 | 580 | C[C@H]1CCN(C(=O)c2cc(C3CC3)c(OCC3(C)CN([C@@H](c4ccccc4)c4cc(Cl)cc(Cl)c4)C3)cc2F)[C@@H]1C(=O)O (single isomer, unassigned) [Example 116] |  | 15000
16 | 25 | 240 | O=C(O)[C@@H]1[C@H]2C[C@H]2CN1C(=O)c1cc(C2CC2)c(OCC23CC4CC(CC(C4)C2)C3)cc1F (stereo in doubt) [Example 171, 3-[4-(1-adamantylmethoxy)-5-cyclopropyl-2-fluoro-benzoyl]-3-azabicyclo[3.1.0]hexane-4-carboxylic acid] |  | 9000
17 | 120 | 400 | O=C(O)[C@@H]1C[C@@H](F)CN1C(=O)c1cc(C2CC2)c(OCC2(F)CCN(Cc3ccc(C(F)(F)F)cc3Cl)CC2)cc1F [Example 127, (2S, 4R)-1-(4-((1-(2-chloro-4-(trifluoromethyl)benzyl)-4-fluoropiperidin-4-yl)methoxy)-5-cyclopropyl-2-fluorobenzoyl)-4-fluoropyrrolidine-2-carboxylic acid] |  | 13000
18 | 39 | 730 | CC(C)Nc1ccc(F)cc1CN1CCC(COc2cc(F)c(C(=O)N3C[C@H](F)C[C@H]3C(=O)O)cc2C2CC2)CC1 [Example 107, (2S,4R)-1-(5-cyclopropyl-2-fluoro-4-((1-(5-fluoro-2-(isopropylamino)benzyl)-piperidin-4-yl)methoxy)benzoyl)-4-fluoropyrrolidine-2-carboxylic acid] |  | 12000
19 | 130 | 790 | CCc1cc(C(=O)N2CCC[C@H]2C(=O)O)c(F)cc1OCC12CC3CC(CC(C3)C1)C2 [Example 89, (S)-1-(4-(adamantan-1-ylmethoxy)-5-ethyl-2-fluorobenzoyl)pyrrolidine-2-carboxylic acid] |  | 17000
20 | 250 | 790 | CC1(COc2cc(F)c(C(=O)N3CCC[C@H]3C(=O)O)cc2C2CC2)CCC2(CC1)CC2(F)F (stereo partly drawn) [Example 55, (5-cyclopropyl-4-((1,1-difluoro-6-methylspiro[2.5]octan-6-yl)methoxy)-2-fluorobenzoyl)-L-proline] |  | 29000
